Results on one molecule are retold here after patent publication US20110123600A1, “Use of alkylureas for treating acne” (priority 2005, published 2011).

A value given as a limit tells only on which side of the number the result lay.

One data set deals with Candida albicans. In words: Plate count after one hour contact with butylurea solution. It counts as cell-based. To be noted: 0.4M BU, vs saline control. Here is the method:
(§1) Preparation of Sample: 11.6 grams of butyl urea (BU) sample was weighed accurately and dissolved in de-ionized water to 100 ml into 100 ml volumetric flask and mixed to form a 1M (11.6% w/v) solution. Then, 10.0 ml of the 1M solution was mixed with 12.7 ml de-ionized water to form a 0.44M (5.1% w/v) solution. (10.0 ml×1.0M÷22.7 ml=0.44M). Finally, the 0.44M solution was filtered through sterile syringe filters to sterilize.
(§2) Procedure: For the 0.4M butylurea solutions, 4.5 ml was aliquoted into seven (7) 16×150 mm sterile glass test tubes. 4.5 ml sterile physiological saline was also aliquoted into seven (7) 16×150 […] sterile glass test tubes as a control.
(§3) 0.6 ml of culture suspension was inoculated into 0.44M BU and saline control tube for each organism tested and mixed. After one hour contact time a 1.0 ml sample culture mixer was diluted serially into 10^6 into 9.0 ml GBL Stat Broth (TSB; 0.5% Leethen; 4% Tween 20 and 0.1% […]).
(§4) One ml Aerobic Plate Count was performed from each dilution tubes using Trypticase Soy Agar. Plates were incubated at 37±° C. for 48 hours. Except Candida albicans plates were poured with Sabourad Dextrose Agar and incubated at 20 to 25° C. for 5 to 7 days. Colonies were counted using a Quebec Colony Counter.

In data set [1] the test system is inflamed cystic lesions of acne. In words: BU in polymer gel applied topically to patients with inflamed cystic lesions of acne. To be noted: polymer gel releasing 0.4 to 0.5 molar BU, 11 patients. It counts as in vivo. Here is the method: BU in polymer gels: BU incorporated in a polymer gel designed to release the chemical within 30 minutes to 3 hours was administered topically to 11 patients with inflamed cystic lesions of acne. The BU end concentration to be released was between 0.4 to 0.5 molar. Applications to the lesions alone were made 3× daily for 1 week. […] The purulent discharge as well as the inflammatory component of all lesions resolved often within 24 hours.

The test system of another data set is acne lesions. In words: BU aqueous solution applied to acne lesions in adolescents. The format is in vivo. The note with it: 0.5 molar (5.8% w/v) aqueous solution, twice daily, 5 adolescents. As to the method:
BU in an squeous solution: A 0.5 molar (5.8% w/v) solution of BU was applied twice daily with Q tips to acne lesions in 5 adolescents. BU was applied to cystic purulent lesions, to non cystic lesions with erythema and to early lesions with minimal inflammation. The inflammatory response resolved in all lesions within 24-48 hours, whereas purulent cystic lesions healed without scarring within 3-7 days.

The next data set has as its system Streptococcus pyogenes. In words: Aerobic plate count after one hour contact with butylurea solution. To be noted: 0.4M BU, vs saline control. The format is cell-based. Here is the method:
as §1, §2, §3, §4

Another data set deals with Staphylococcus aureus. The description is as above. It counts as cell-based. The note with it: 0.4M BU, vs saline control. As to the method: as §1, §2, §3, §4

In the case of `CCCCNC(N)=O` [BU, butyl urea], in the data set with Candida albicans, the “log Reduction in count” value was 0.4 log Reduction. In addition, in data set [1] (topical 3x daily for 1 week), the Local adverse reactions result is “no local adverse reactions were noted” and the “Resolution of lesions by the end of the treatment” value is reported as “Most of the lesions resolved”. Moreover, the “Time to resolution of purulent discharge and inflammatory component of all lesions” value in data set [1] (topical 3x daily, 'often') is not above 24 h. Also, in the data set on acne lesions, the “Time to healing of purulent cystic lesions without scarring” value was 3 to 7 days and the “Time to resolution of inflammatory response in all lesions” value is 24 to 48 h. In addition, the “log Reduction in bacterial count” value in the data set on Streptococcus pyogenes is 2 log Reduction. In addition, in the data set on Staphylococcus aureus, the “Reduction in bacterial count” value is reported as “Not Active”.
